Some results are limits rather than exact numbers.

This note sets out measurements from PMC8512560, “Design, Synthesis, and Antipoliferative Activities of Novel Substituted Imidazole-Thione Linked Benzotriazole Derivatives” (Molecules, 2021).

Test [1] relates to PARP. The test can be described thus: Western blot of PARP cleavage in HL-60 cells. The class given is cell-based, human. The conditions noted are these: HL-60, after a 48 h treatment. As for the experimental part: HL-60 cells were seeded at a density of 1 × 10^5 cells/flask in T25 flasks. After 48 h, whole cell lysates were prepared from untreated cells or cells treated with vehicle control (EtOH, 0.1% v/v) or compound BI9 (0.5 and 1 μM). HL-60 cells were harvested in RIPA buffer supplemented with protease inhibitors (Roche Diagnostics), phosphatase inhibitor cocktail 2 (Sigma-Aldrich), and phosphatase inhibitor cocktail 3 (Sigma-Aldrich). Equal quantities of protein (as determined by a BCA assay) were resolved by SDS-PAGE (12%) followed by transfer to PVDF membranes. Membranes were blocked in 5% bovine serum albumin/TBST for 1 h. Membranes were incubated in the relevant primary antibodies at 4 °C overnight, washed with TBST, and incubated in horseradish peroxidase conjugated secondary antibody for 1 h at rt and washed again. Western blot analysis was performed as described above using antibodies directed against BAX [1:1000] (Cell Signaling Technology), PARP [1:500] (Cell Signaling Technology) and Bcl-2 [1:500] (Cell Signaling Technology) followed by incubation with a horseradish peroxidase-conjugated anti-mouse antibody [1:2000] (Promega, Madison, WI, USA). All blots were probed with β-actin antibody [1:5000] (Sigma) to confirm equal loading. Proteins were detected using enhanced chemiluminescent Western blot detection (Clarity Western ECL substrate) (Bio Rad) on the ChemiDoc MP System (Bio Rad). […]

Test [2] relates to MCF-7 human breast cancer cell line. The test can be described thus: MTT viability assay, MCF-7. The format is cell-based. As to conditions: Homo sapiens, MCF7, 72 h, mean ± SD of three independent experiments, read-out: Antiproliferative Activities IC50, MCF-7. As for the experimental part:
(§1) All the human tumour cell lines MCF-7, HL-60, HCT-116, and HUVEC were cultured in Dulbecco’s Modified Eagle’s Medium (DMEM) with 10% fetal bovine serum, 2 mM L-glutamine and 100 µg/mL penicillin/streptomycin. Cells were maintained at 37 °C in 5% CO2 in a humidified incubator. All cells were sub-cultured three times/week by trypsinization using TrypLE Express (1X).
(§2) The Benzotriazole compounds were evaluated for antiproliferative effect using the MTT viability assay of various cancer cell lines (MCF-7, HCT-116 and HL-60) and the normal human umbilical vein endothelial cell line (HUVEC) to calculate the relative IC50 values for each compound. Cells were seeded in triplicate in 96-well plates at a density of 10 × 10^3 cells/mL in a total volume of 200 µL per well. 0.1% of DMSO was used as a vehicle control. After this time, they were treated with 2 µL test compound which had been pre-prepared as stock solutions in ethanol to furnish the concentration range of study, 10 nM to 100 µM, and re-incubated for a further 72 h. The culture medium was then removed, and the cells washed with 100 µL phosphate buffered saline (PBS) and 50 µL MTT added, to reach a final concentration of 1 mg/mL MTT added. Cells were incubated for 2 h in darkness at 37 °C. At this point solubilisation was begun through the addition of […] DMSO and the cells maintained at room temperature in darkness for 20 min to ensure thorough colour diffusion before reading the absorbance. Plates were incubated for 72 h at 37 °C + 5% CO2. The MTT (5 mg/mL in PBS) was added and incubated for another 4 h, and the optical density was detected with a microplate reader at 570 nm. Results were expressed as percentage viability relative to vehicle control (100%). Dose response curves were plotted and IC50 values (concentration of drug resulting in 50% reduction in cell survival) were obtained using the commercial software package Prism (GraphPad Software, Inc., La Jolla, CA, USA). All the experiments were repeated in at least three independent experiments.

Test [3] relates to HL-60 cells. Nature of the test: Annexin V/PI apoptotic assay by flow cytometry. As to conditions: BI9 1 µM, CA-4 concentration not given, control 1.6%. The class given is cell-based, human. The procedure: Apoptotic cell death was detected by flow cytometry using Annexin V and propidium iodide (PI). HL-60 Cells were seeded in 6 well plated at density of 1 × 10^5 cells/mL and treated with vehicle (0.1% (v/v) EtOH), positive control (CA-4) or compound BI9 (1 µM) for 48 and 72 h. Cells were then harvested and prepared for flow cytometric analysis. Cells were washed in 1X binding buffer ([…] binding buffer: 0.1M HEPES, pH 7.4; 1.4 M NaCl; 25 mM CaCl2 diluted in dH2O) and incubated in the dark for 30 min on ice in Annexin V-containing binding buffer [1:100]. Cells were then washed once in binding buffer and then re-suspended in PI-containing binding buffer [1:1000]. Samples were analysed immediately using the BD accuri flow cytometer and prism software for analysis the data. Four populations are produced during the assay Annexin V and PI negative (Q4, healthy cells), Annexin V positive and PI negative (Q3, early apoptosis), Annexin V and PI positive (Q2, late apoptosis) and Annexin V negative and PI positive (Q1, necrosis).

Test [4] relates to HUVEC human umbilical vein endothelial cell line. Nature of the test: MTT viability assay, normal HUVEC cells. The format is cell-based. As to conditions: 72 h, mean ± SD of three independent experiments. The procedure:
as §1, §2

Test [5] relates to bovine brain tubulin. The test can be described thus: Tubulin polymerization assay (turbidimetric, kit BK006). The format is biochemical. As to conditions: read-out: Anti-Tubulin Activity IC50 ± SD (inhibition of tubulin polymerization). The procedure: The assembly of purified bovine tubulin was monitored using a kit, BK006, purchased from Cytoskeleton Inc., (Denver, CO, USA). The assay was carried out in accordance with the manufacturer’s instructions using the standard assay conditions. Briefly, purified ([…]) in a buffer consisting of 80 mM PIPES (pH 6.9), 0.5 mM EGTA, 2 mM MgCl2, 1 mM GTP and 10% glycerol was incubated at 37 °C in the presence of either vehicle (2% (v/v) ddH2O), CA-4, benzotriazole compounds. Light was scattered proportionally to the concentration of polymerized microtubules in the assay. Therefore, the tubulin assembly was monitored turbidimetrically at 340 nm in a Spectramax 340 PC spectrophotometer (Molecular Devices, Sunnyvale, CA, USA). The concentration that inhibits tubulin polymerization by 50% (IC50) was determined using area under the curve (AUC). The AUC of the untreated controls were considered as 100% polymerization. The IC50 value for each compound was computed using GraphPad Prism Software.

Test [6] concerns HL-60 human leukemia cancer cell line. The test can be described thus: MTT viability assay, HL-60. The class given is cell-based. As to conditions: Homo sapiens, HL-60, 72 h, mean ± SD of three independent experiments, read-out: Antiproliferative Activities IC50, HL-60. As for the experimental part: as §1, §2

Turning to `S=c1[nH]c(-n2nnc3ccccc32)cn1-c1ccc(Cl)cc1Cl` [BI9, 4-(1H-Benzo[d][1,2,3]Triazol-1-yl)-1-(2,4-Dichlorophenyl)-1H-Imidazole-2(3H)-Thione], in test [1], the “PARP cleavage (indicator of apoptosis)” value is “confirmed”. The IC50 in test [2] is 3570 ± 160 nM; in test [4], over 100000 nM; in test [5], 520 ± 20 nM; in test [6], 400 ± 30 nM. The “Total fraction of early and late apoptotic cells (Annexin V positive)” value in test [3] (48 h) was determined as 21.5%. Further, the “Average fraction of Annexin V-staining positive cells (total apoptotic cells)” value in test [3] (72 h) is reported as 19.2%.
